Columns and labels:
[1] = biological target: Vasopressin V1a receptor (Homo sapiens, UniProt P37288); assay type: cell membranes, Membrane; details: hek293; note: in other assays of this panel Not Active means under 50% inhibition at 10 µM
[2] = biological target: T1, Adenosine receptor A3 (Homo sapiens, UniProt P0DMS8); assay type: cell membranes, CHO-K1, Membrane; details: cho-k1;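 note: radioligand binding assay with AB-MECA serving as the labeled ligand; in other assays of this panel Not Active means under 50% inhibition at 10 µM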
T1 sequence (P0DMS8 whole entry): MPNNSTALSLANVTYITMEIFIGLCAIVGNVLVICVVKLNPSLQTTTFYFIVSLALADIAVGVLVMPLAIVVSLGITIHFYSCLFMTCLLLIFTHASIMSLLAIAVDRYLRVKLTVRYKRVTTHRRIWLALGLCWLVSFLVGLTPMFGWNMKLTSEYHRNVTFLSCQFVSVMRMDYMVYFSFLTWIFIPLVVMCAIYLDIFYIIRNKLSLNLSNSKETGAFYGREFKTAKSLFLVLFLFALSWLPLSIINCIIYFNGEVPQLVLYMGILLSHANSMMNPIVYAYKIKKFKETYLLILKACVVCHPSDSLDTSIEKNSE

[3] = biological target: T2, C-C chemokine receptor type 4 (Homo sapiens, UniProt P51679); assay type: cell membranes, Membrane; details: chem-1; note: in other assays of this panel Not Active means under 50% inhibition at 10 µM
T2 sequence (P51679 whole entry): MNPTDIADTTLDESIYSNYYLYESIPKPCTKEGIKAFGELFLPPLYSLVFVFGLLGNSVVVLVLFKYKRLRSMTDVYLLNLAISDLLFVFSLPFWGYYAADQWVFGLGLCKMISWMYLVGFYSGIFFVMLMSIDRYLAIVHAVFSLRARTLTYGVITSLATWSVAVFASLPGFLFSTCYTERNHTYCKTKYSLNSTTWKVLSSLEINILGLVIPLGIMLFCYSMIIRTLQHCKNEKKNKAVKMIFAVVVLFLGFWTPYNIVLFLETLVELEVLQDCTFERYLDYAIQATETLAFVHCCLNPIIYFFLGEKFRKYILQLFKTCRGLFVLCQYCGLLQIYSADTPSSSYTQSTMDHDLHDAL

[4] = DRUGMATRIX: Phosphodiesterase PDE3 enzyme inhibition (substrate: [3H]cAMP + cAMP); assay type: tissue-based, Homo sapiens; details: platelet, Not Active = under 50% inhibition at 10 µM
[5] = biological target: Tyrosine-protein kinase Fyn (Homo sapiens, UniProt P06241); assay: biochemical; assay type: cell-based, Insect cells; details: insect cells;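 note: enzymatic inhibition of Fyn kinase activity measured with Poly(Glu:Tyr) as the phosphorylation substrate; in other assays of this panel Not Active means under 50% inhibition at 10 µM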
[6] = biological target: Receptor tyrosine-protein kinase erbB-2 (Homo sapiens, UniProt P04626); assay: biochemical; assay type: cell-based, Insect cells; details: insect cells
Receptor tyrosine-protein kinase erbB-2, sequence (P04626 whole entry): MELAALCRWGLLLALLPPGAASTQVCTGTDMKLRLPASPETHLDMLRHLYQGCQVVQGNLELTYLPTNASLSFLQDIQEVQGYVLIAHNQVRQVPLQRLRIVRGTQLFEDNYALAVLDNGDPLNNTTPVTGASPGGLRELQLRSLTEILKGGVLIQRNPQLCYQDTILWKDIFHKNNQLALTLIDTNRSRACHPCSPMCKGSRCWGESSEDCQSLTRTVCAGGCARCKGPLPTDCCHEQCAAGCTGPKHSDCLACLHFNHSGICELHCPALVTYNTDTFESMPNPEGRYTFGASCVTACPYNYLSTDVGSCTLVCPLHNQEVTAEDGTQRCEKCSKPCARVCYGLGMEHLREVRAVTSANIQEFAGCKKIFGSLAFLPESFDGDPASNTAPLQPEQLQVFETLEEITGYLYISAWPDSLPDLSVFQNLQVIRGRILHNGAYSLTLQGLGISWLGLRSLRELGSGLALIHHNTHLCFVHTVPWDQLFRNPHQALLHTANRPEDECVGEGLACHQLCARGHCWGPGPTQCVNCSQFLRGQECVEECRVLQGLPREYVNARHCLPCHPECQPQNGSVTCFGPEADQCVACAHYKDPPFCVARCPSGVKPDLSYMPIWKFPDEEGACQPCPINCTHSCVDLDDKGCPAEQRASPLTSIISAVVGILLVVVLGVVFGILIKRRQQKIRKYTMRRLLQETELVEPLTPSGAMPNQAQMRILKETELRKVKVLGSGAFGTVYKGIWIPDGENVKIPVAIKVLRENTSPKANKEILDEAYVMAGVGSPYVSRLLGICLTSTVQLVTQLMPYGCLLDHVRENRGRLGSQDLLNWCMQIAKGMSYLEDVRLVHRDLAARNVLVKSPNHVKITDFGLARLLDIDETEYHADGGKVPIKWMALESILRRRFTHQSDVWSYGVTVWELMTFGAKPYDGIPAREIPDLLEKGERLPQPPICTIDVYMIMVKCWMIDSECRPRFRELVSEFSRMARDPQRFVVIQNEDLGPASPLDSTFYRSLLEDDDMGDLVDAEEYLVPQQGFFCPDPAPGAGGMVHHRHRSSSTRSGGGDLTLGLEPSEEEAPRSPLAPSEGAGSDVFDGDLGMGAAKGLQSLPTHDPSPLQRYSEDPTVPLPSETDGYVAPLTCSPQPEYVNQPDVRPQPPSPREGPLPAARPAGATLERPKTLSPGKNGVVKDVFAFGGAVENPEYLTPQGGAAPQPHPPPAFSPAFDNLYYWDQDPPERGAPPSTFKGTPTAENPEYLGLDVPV

Tyrosine-protein kinase Fyn, sequence (P06241 whole entry): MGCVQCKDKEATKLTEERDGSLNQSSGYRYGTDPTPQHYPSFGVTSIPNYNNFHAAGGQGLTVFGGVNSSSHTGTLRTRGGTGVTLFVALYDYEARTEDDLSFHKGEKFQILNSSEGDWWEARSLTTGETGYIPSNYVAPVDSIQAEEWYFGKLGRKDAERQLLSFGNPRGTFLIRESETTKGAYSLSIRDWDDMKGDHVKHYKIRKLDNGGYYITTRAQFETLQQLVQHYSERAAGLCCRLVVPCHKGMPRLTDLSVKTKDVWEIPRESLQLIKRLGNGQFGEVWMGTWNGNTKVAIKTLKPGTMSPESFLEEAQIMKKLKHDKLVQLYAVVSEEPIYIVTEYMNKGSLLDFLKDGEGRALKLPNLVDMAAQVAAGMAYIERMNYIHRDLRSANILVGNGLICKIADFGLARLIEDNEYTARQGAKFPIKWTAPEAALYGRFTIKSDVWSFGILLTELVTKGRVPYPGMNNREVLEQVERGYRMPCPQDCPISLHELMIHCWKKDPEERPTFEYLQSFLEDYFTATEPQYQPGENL
Vasopressin V1a receptor, sequence (P37288 whole entry): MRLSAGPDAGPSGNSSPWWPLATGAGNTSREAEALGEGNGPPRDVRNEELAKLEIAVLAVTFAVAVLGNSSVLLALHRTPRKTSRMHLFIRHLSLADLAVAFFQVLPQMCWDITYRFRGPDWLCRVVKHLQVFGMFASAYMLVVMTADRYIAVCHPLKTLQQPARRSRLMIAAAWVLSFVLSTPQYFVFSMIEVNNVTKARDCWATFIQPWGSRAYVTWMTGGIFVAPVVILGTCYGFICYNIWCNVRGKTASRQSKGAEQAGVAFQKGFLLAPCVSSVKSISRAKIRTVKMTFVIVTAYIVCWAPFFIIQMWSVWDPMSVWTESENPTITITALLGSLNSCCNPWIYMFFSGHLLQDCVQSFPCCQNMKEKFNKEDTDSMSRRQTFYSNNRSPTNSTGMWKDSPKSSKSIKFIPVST

| Structure (SMILES) | IC50 [1] | IC50 [2] | IC50 [3] | IC50 [4] | Ki [4] | IC50 [5] | IC50 [6] | IC50 ([4]; read-out: IC50) [µM] |
| --- | --- | --- | --- | --- | --- | --- | --- | --- |
| O=C(O)c1cc(-c2ccc(F)cc2F)ccc1O [DIFLUNISAL] | Not Active | Not Active | Not Active | Not Active | Not Active | Not Active | Not Active |  |
| C[S+](C)[O-] [DIMETHYL SULFOXIDE] | Not Active | Not Active | Not Active | Not Active | Not Active | Not Active | Not Active |  |
| CC1=NN(c2ccccc2)C(=O)C1 [EDARAVONE] | Not Active | Not Active | Not Active | Not Active | Not Active | Not Active | Not Active |  |
| CC(C)C[C@H]1C(=O)N2CCC[C@H]2[C@]2(O)O[C@](NC(=O)[C@@H]3C=C4c5cccc6[nH]cc(c56)C[C@H]4N(C)C3)(C(C)C)C(=O)N12 [ERGOCRYPTINE] | Not Active | Not Active | Not Active | Not Active | Not Active | Not Active | Not Active |  |
| C[C@]12CC[C@@H]3c4ccc(O)cc4CC[C@H]3[C@@H]1C[C@@H](O)[C@@H]2O [ESTRIOL] | Not Active | Not Active | Not Active | Not Active | Not Active | Not Active | Not Active |  |
| C#C[C@]1(O)CC[C@H]2[C@@H]3CCC4=CC(=O)CC[C@]4(C)[C@H]3CC[C@@]21C [ETHISTERONE] | Not Active | Not Active | Not Active | Not Active | Not Active | Not Active | Not Active |  |
| CC(O)(P(=O)(O)O)P(=O)(O)O [ETIDRONIC ACID] | Not Active | Not Active | Not Active | Not Active | Not Active | Not Active | Not Active |  |
| CC(C)(C(=O)O)c1ccc(C(O)CCCN2CCC(C(O)(c3ccccc3)c3ccccc3)CC2)cc1 (stereo not drawn) [FEXOFENADINE] | Not Active | Not Active | Not Active | Not Active | Not Active | Not Active | Not Active |  |
| CN1CCN(c2c(F)cc3c(=O)c(C(=O)O)cn(CCF)c3c2F)CC1 [FLEROXACIN] | Not Active | Not Active | Not Active | Not Active | Not Active | Not Active | Not Active |  |
| O=c1[nH]c(=O)n([C@H]2C[C@H](O)[C@@H](CO)O2)cc1F [FLOXURIDINE] | Not Active | Not Active | Not Active | Not Active | Not Active | Not Active | Not Active |  |
| COC(=O)Nc1nc2cc(C(=O)c3ccc(F)cc3)ccc2[nH]1 [FLUBENDAZOLE] | Not Active | Not Active | Not Active | Not Active | Not Active | Not Active | Not Active |  |
| CC(=O)OCC(=O)[C@@]1(O)CC[C@H]2[C@@H]3CCC4=CC(=O)CC[C@]4(C)[C@@]3(F)[C@@H](O)C[C@@]21C [FLUDROCORTISONE ACETATE] | Not Active | Not Active | Not Active | Not Active | Not Active | Not Active | Not Active |  |
| CCOC(=O)c1ncn2c1CN(C)C(=O)c1cc(F)ccc1-2 [FLUMAZENIL] | Not Active | Not Active | Not Active | Not Active | Not Active | Not Active | Not Active |  |
| CC(=O)OCC(=O)[C@@]12OC(C)(C)O[C@@H]1C[C@H]1[C@@H]3C[C@H](F)C4=CC(=O)C=C[C@]4(C)[C@@]3(F)[C@@H](O)C[C@@]12C [FLUOCINONIDE] | Not Active | Not Active | Not Active | Not Active | Not Active | Not Active | Not Active |  |
| O=C(O)P(=O)(O)O [FOSCARNET] | Not Active | Not Active | Not Active | Not Active | Not Active | Not Active | Not Active |  |
| Cc1ccc(C)c(OCCCC(C)(C)C(=O)O)c1 [GEMFIBROZIL] | Not Active | Not Active | Not Active | Not Active | Not Active | Not Active | Not Active |  |

| Structure (SMILES) | IC50 [1] | IC50 [2] | IC50 [3] | IC50 [4] | Ki [4] | IC50 [5] | IC50 [6] | IC50 ([4]; read-out: IC50) [µM] |
| --- | --- | --- | --- | --- | --- | --- | --- | --- |
| O=c1c(-c2ccc(O)cc2)coc2cc(O)cc(O)c12 [GENISTEIN] | Not Active | Not Active | Not Active |  |  | Not Active | Not Active | 11 |
| CCC1=C(C)CN(C(=O)NCCc2ccc(S(=O)(=O)NC(=O)N[C@H]3CC[C@H](C)CC3)cc2)C1=O [GLIMEPIRIDE] | Not Active | Not Active | Not Active | Not Active | Not Active | Not Active | Not Active |  |
| Nc1cc(-c2ccncc2)c[nH]c1=O [INAMRINONE] | Not Active | Not Active | Not Active | Not Active | Not Active | Not Active | Not Active |  |
| CCCCC1=NC2(CCCC2)C(=O)N1Cc1ccc(-c2ccccc2-c2nnn[nH]2)cc1 [IRBESARTAN] | Not Active | Not Active | Not Active | Not Active | Not Active | Not Active | Not Active |  |
| CN1CCC(=C2c3ccccc3CC(=O)c3sccc32)CC1 [KETOTIFEN] | Not Active | Not Active | Not Active | Not Active | Not Active | Not Active | Not Active |  |
| N[C@@H](Cn1ccc(=O)c(O)c1)C(=O)O [L-MIMOSINE] | Not Active | Not Active | Not Active | Not Active | Not Active | Not Active | Not Active |  |
| C[N+](C)(C)C[C@H](O)CC(=O)[O-] [LEVOCARNITINE] | Not Active | Not Active | Not Active | Not Active | Not Active | Not Active | Not Active |  |
| C[C@H]1COc2c(N3CCN(C)CC3)c(F)cc3c(=O)c(C(=O)O)cn1c23.C[C@H]1COc2c(N3CCN(C)CC3)c(F)cc3c(=O)c(C(=O)O)cn1c23.O [LEVOFLOXACIN] | Not Active | Not Active | Not Active | Not Active | Not Active | Not Active | Not Active |  |
| CCn1cc(C(=O)O)c(=O)c2cc(F)c(N3CCNC(C)C3)c(F)c21 (stereo not drawn) [LOMEFLOXACIN] | Not Active | Not Active | Not Active | Not Active | Not Active | Not Active | Not Active |  |
| CN1CCCC(CN2c3ccccc3Sc3ccccc32)C1 (stereo not drawn) [MEPAZINE] | Not Active | Not Active | Not Active | Not Active | Not Active | Not Active | Not Active |  |
| Cc1cccc(C)c1NC(=O)C1CCCCN1C (stereo not drawn) [MEPIVACAINE] | Not Active | Not Active | Not Active | Not Active | Not Active | Not Active | Not Active |  |
| CN(C)C(=N)NC(=N)N [METFORMIN] | Not Active | Not Active | Not Active | Not Active | Not Active | Not Active | Not Active |  |
| CC(C)(C)NCC(O)COc1cccc2c1CC(O)C(O)C2 (stereo not drawn) [NADOLOL] | Not Active | Not Active | Not Active | Not Active | Not Active | Not Active | Not Active |  |
| C[C@]12CC[C@H]3[C@@H](CCC4=CC(=O)CC[C@@H]43)[C@@H]1CC[C@@H]2O [NANDROLONE] | Not Active | Not Active | Not Active | Not Active | Not Active | Not Active | Not Active |  |
| C[C@@H]1C/C=C/C=C/C=C/C=C/[C@H](O[C@@H]2O[C@H](C)[C@@H](O)[C@H](N)[C@@H]2O)C[C@@H]2O[C@](O)(C[C@@H](O)C[C@H]3O[C@@H]3/C=C/C(=O)O1)C[C@H](O)[C@H]2C(=O)O [NATAMYCIN] | Not Active | Not Active | Not Active | Not Active | Not Active | Not Active | Not Active |  |
| CN(C)C(=O)Oc1cccc([N+](C)(C)C)c1.[Br-] [NEOSTIGMINE BROMIDE] | Not Active | Not Active | Not Active | Not Active | Not Active | Not Active | Not Active |  |

— ChEMBL document CHEMBL1909046, “DrugMatrix in vitro pharmacology data”
